Reference: paper PMC2358886, “Evolution of pharmacologic specificity in the pregnane X receptor” (BMC Evolutionary Biology, 2008)
Read-outs that look alike come from different tables or passages of the source.

How the values were obtained:
human PXR [1] = biological target: T1, human PXR (Homo sapiens, UniProt O75469); details: for hPXR Efficacy: human
T1 sequence (O75469 1-434): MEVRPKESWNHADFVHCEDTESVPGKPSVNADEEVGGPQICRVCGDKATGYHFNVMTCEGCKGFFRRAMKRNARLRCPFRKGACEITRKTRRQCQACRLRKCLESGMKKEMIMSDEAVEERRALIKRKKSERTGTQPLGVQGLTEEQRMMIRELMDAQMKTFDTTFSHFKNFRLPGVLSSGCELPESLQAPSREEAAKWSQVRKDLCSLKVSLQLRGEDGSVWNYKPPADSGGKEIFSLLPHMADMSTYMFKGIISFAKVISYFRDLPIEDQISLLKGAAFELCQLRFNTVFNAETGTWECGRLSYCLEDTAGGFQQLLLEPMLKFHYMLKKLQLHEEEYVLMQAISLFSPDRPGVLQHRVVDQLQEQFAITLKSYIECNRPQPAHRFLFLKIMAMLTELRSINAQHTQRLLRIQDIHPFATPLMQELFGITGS

human PXR [2] = biological target: T1, human PXR; test: PXR activation luciferase reporter assay, human PXR in HepG2-NTCP cells; details: for hPXR Efficacy: relative to 10 μM rifampicin, assigned an efficacy of 1.0
zebrafish PXR = biological target: T2, zebrafish PXR (Danio rerio, UniProt A5WYG8)
T2 sequence (A5WYG8 144-430): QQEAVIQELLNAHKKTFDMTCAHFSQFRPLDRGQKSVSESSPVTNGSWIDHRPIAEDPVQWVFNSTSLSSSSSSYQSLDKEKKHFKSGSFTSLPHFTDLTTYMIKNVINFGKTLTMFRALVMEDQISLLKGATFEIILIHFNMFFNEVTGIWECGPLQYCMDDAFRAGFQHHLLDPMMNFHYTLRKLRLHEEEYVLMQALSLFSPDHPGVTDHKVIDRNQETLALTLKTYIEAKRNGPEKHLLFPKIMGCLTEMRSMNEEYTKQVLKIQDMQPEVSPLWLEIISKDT

[3] = -log(EC50), EC50 in molar units, activation of human PXR
[4] = -log(EC50), EC50 in molar units, activation of zebrafish PXR
[5] = Human PXR EC50 (concentration class, Figure 2A), class read from box colour against the key of Figure 2
[6] = hPXR Activity, -log(EC50), EC50 in molar units, activation of human PXR

| Compound | Toxicity (HepG2 cells) | zfPXR Activity (zebrafish PXR; [4]) | Toxicity (HepG2 cells; human, 24 hr) | EC50 (human PXR [2]; [6]) | further results |
| --- | --- | --- | --- | --- | --- |
| C[C@]12CCC(=O)C[C@@H]1CC[C@@H]1[C@@H]2CC[C@]2(C)C(=O)CC[C@@H]12 [AN2, 5α-Androstan-3,17-dione] | None | – | – | – | hPXR Efficacy (human PXR [1]): 0.87 |
| C[C@]12CC[C@H]3[C@@H](CCC4=CC(=O)CC[C@@]43C)[C@@H]1CC[C@@H]2O [AN8, 4-Androsten-17β-ol-3-one] | None | – | – | – | hPXR Efficacy (human PXR [1]): 0.22 |
| C[C@]12CC[C@H]3[C@@H](CCC4=CC(=O)CC[C@@]43C)[C@@H]1CC[C@H]2O [AN15, 4-Androsten-17α-ol-3-one] | None | – | – | – | hPXR Efficacy (human PXR [1]): 0.9 |
| C[C@]12CC[C@@H](O[C@@H]3O[C@H](C(=O)O)[C@@H](O)[C@H](O)[C@H]3O)C[C@H]1CC[C@@H]1[C@@H]2CC[C@]2(C)C(=O)CC[C@@H]12 [AN18, 5β-Androstan-3α-glucosiduronate-17-one] | None | None | – | – | hPXR Activity (human PXR [2]; [3]): None |
| C[C@H](CCC(=O)O)[C@H]1CC[C@H]2[C@@H]3CC[C@@H]4C[C@H](OS(=O)(=O)O)CC[C@]4(C)[C@H]3CC[C@]12C [BI41, 5β-Cholanic acid-3α-sulfate] | None | 4.61 | – | – | hPXR Activity (human PXR [2]; [3]): 3.93 |
| CC(=O)O[C@@H]1CC[C@@]2(C)[C@H](CC[C@@H]3[C@@H]2CC[C@]2(C)[C@@H]([C@H](C)CCC(=O)O)CC[C@@H]32)C1 [BI49, 5β-Cholanic acid-3α-acetate] | None | 5.89 | – | – | hPXR Activity (human PXR [2]; [3]): 5.92; hPXR Efficacy (human PXR [2]): 0.54 |
| COC(=O)CC[C@@H](C)[C@H]1CC[C@H]2[C@@H]3CC[C@@H]4C[C@H](OC(C)=O)CC[C@]4(C)[C@H]3CC[C@]12C [BI50, 5β-Cholanic acid-3α-acetate methyl ester] | None | None | – | – | hPXR Activity (human PXR [2]; [3]): 5.96 |
| CC(C)CCC[C@@H](C)[C@H]1CC[C@H]2[C@@H]3CC=C4C[C@@H](O)CC[C@]4(C)[C@H]3CC[C@]12C [Cholesterol] | – | – | – | – | Human PXR EC50 (concentration class, Figure 2A) (human PXR [1]): Inactive |
| C[C@]12CC[C@@H]3c4ccc(O)cc4CC[C@H]3[C@@H]1CC[C@@H]2O [ES1, 1,3,5(10)-Estratrien-3,17β-diol] | – | None | 200 µM | 15.8 µM | EC50 (human PXR [2]; [5]): 11 to 50 µM |
| C[C@]12CC[C@@H]3c4ccc(O)cc4CC[C@H]3[C@@H]1CCC2=O [ES2, 1,3,5(10)-Estratrien-3-ol-17-one] | – | – | 200 µM | – | – |
| C[C@]12CC[C@@H]3c4ccc(OC5O[C@H](C(=O)O)[C@@H](O)[C@H](O)[C@H]5O)cc4CC[C@H]3[C@@H]1CC[C@@H]2O (stereo partly drawn) [ES9, 1,3,5(10)-Estratrien-17β-ol-3-glucosiduronate] | None | None | – | – | hPXR Activity (human PXR [2]; [3]): None |
| CC(=O)Nc1ccc(O)cc1 [MI1, Acetaminophen] | None | – | – | – | – |
| Cn1c(=O)c2c(ncn2C)n(C)c1=O [MI6, Caffeine] | – | – | – | – | hPXR Activity (human PXR [1]): None |
| CC1=C(/C=C/C(C)=C/C=C/C(C)=C/C=C/C=C(C)/C=C/C=C(C)/C=C/C2=C(C)CCCC2(C)C)C(C)(C)CCC1 [MI9, β-Carotene] | – | None | 100 µM | 3.47 µM | – |
| C[C@H]([C@H](O)CCC(C)(C)O)[C@H]1CC[C@@]2(O)C3=CC(=O)[C@@H]4C[C@@H](O)[C@@H](O)C[C@]4(C)[C@H]3CC[C@]12C [MI13, Ecdysone] | None | None | – | – | hPXR Activity (human PXR [2]; [3]): None |
| CCOC(=O)c1ccccc1N [MI14, Ethyl-2-aminobenzoate] | – | None | – | – | hPXR Activity (human PXR [2]; [3]): None |
| Nc1nc2ncc(CNc3ccc(C(=O)N[C@@H](CCC(=O)O)C(=O)O)cc3)nc2c(=O)[nH]1 [MI16, Folic acid] | None | – | – | – | zfPXR Activity (zebrafish PXR): None |
| C/C=C1\C(=O)C[C@H]2[C@@H]3CCC4=CC(=O)CC[C@]4(C)[C@H]3CC[C@]12C [MI17, Guggulsterone] | None | – | – | – | zfPXR Activity (zebrafish PXR): None |

| Compound | Toxicity (HepG2 cells) | zfPXR Activity (zebrafish PXR; [4]) | Toxicity (HepG2 cells; human, 24 hr) | EC50 (human PXR [2]; [6]) | further results |
| --- | --- | --- | --- | --- | --- |
| CC[C@H](C)C(=O)O[C@H]1CCC=C2C=C[C@H](C)[C@H](CC[C@@H]3C[C@@H](O)CC(=O)O3)[C@H]21 [MI20, Mevastatin] | – | None | 15 µM | 5.89 µM | – |
| CC(=O)O[C@H]1C(=O)[C@@]2(C)[C@H]([C@H](OC(=O)c3ccccc3)[C@]3(O)C[C@H](OC(=O)[C@H](O)[C@@H](NC(=O)c4ccccc4)c4ccccc4)C(C)=C1C3(C)C)[C@]1(OC(C)=O)CO[C@@H]1C[C@@H]2O [MI24, Paclitaxel] | – | – | 100 µM | 12 µM | zfPXR Activity (zebrafish PXR): None |
| COC(=O)[C@H]1[C@H]2C[C@@H]3c4[nH]c5cc(OC)ccc5c4CCN3C[C@H]2C[C@@H](OC(=O)c2cc(OC)c(OC)c(OC)c2)[C@@H]1OC [MI30, Reserpine] | – | – | 50 µM | – | – |
| CO[C@H]1/C=C/O[C@@]2(C)Oc3c(C)c(O)c4c(O)c(c(/C=N/N5CCN(C)CC5)c(O)c4c3C2=O)NC(=O)/C(C)=C\C=C\[C@H](C)[C@H](O)[C@@H](C)[C@@H](O)[C@@H](C)[C@H](OC(C)=O)[C@@H]1C [MI32, Rifampicin] | – | None | 200 µM | – | – |
| CCOP(=O)(OCC)C(=Cc1cc(C(C)(C)C)c(O)c(C(C)(C)C)c1)P(=O)(OCC)OCC [MI33, SR12813] | 10 µM | None | – | – | – |
| Cc1c(C)c2c(c(C)c1O)CC[C@@](C)(CCC[C@H](C)CCC[C@H](C)CCCC(C)C)O2 [MI37, α-Tocopherol] | – | – | 100 µM | ~50.1 µM | zfPXR Activity (zebrafish PXR): None |
| C=C1/C(=C\C=C2/CCC[C@]3(C)[C@@H]([C@H](C)CCCC(C)(C)O)CC[C@@H]23)C[C@@H](O)C[C@@H]1O [MI41, 1α,25-Dihydroxyvitamin D3] | – | – | 50 µM | – | – |
| C=C1/C(=C\C=C2/CCC[C@]3(C)[C@@H]([C@H](C)CCCC(C)C)CC[C@@H]23)C[C@@H](O)C[C@@H]1O [MI43, 1α-Hydroxyvitamin D3] | – | None | 50 µM | – | – |
| CC1=C(C/C=C(\C)CCC[C@H](C)CCC[C@H](C)CCCC(C)C)C(=O)c2ccccc2C1=O [MI44, Vitamin K1] | – | None | 100 µM | 10.2 µM | – |
| C[C@]12C[C@H](O)[C@H]3[C@@H](CCC4=CC(=O)CC[C@@]43C)[C@@H]1CC[C@@H]2C(=O)CO [PR3, 4-Pregnen-11β,21-diol-3,20-dione] | None | – | – | 10 µM | EC50 (human PXR [2]; [5]): < 10 µM; Zebrafish PXR EC50 (concentration class, Figure 2B) (zebrafish PXR): Inactive; zfPXR Activity (zebrafish PXR): None |
| C[C@]12CCC(=O)C=C1CC[C@@H]1[C@@H]2CC[C@@]2(C)[C@H]1CC[C@]2(O)C(=O)CO [PR4, 4-Pregnen-17,21-diol-3,20-dione] | None | None | – | 22.9 µM | EC50 (human PXR [2]; [5]): 11 to 50 µM |
| C[C@]12CCC(=O)C=C1CC[C@@H]1[C@@H]2[C@@H](O)C[C@]2(C=O)[C@@H](C(=O)CO)CC[C@@H]12 [PR5, 4-Pregnen-11β,21-diol-3,18,20-trione] | None | None | – | 55 µM | EC50 (human PXR [2]; [5]): 51 to 200 µM |
| C[C@]12CCC(=O)C=C1CC[C@@H]1[C@@H]2C(=O)C[C@@]2(C)[C@H]1CC[C@]2(O)C(=O)CO [PR6, 4-Pregnen-17,21-diol-3,11,20-trione] | – | – | 200 µM | 69.2 µM | EC50 (human PXR [2]; [5]): 51 to 200 µM; Zebrafish PXR EC50 (concentration class, Figure 2B) (zebrafish PXR): Inactive; zfPXR Activity (zebrafish PXR): None |
| CC(=O)[C@H]1CC[C@H]2[C@@H]3CCC4=CC(=O)CC[C@]4(C)[C@H]3CC[C@]12C [PR7, 4-Pregnen-3,20-dione] | – | None | 200 µM | 14.8 µM | EC50 (human PXR [2]; [5]): 11 to 50 µM |
| CC(=O)[C@@]1(O)CC[C@H]2[C@@H]3CCC4=CC(=O)CC[C@]4(C)[C@H]3CC[C@@]21C [PR8, 4-Pregnen-17-ol-3,20-dione] | – | – | – | – | Toxicity (HepG2 cells; human): None |
| CC(=O)[C@H]1CC[C@H]2[C@@H]3CC=C4C[C@@H](O)CC[C@]4(C)[C@H]3CC[C@]12C [PR12, 5-Pregnen-3β-diol-20-one] | None | 6.32 | – | – | hPXR Activity (human PXR [2]; [3]): 5.64; hPXR Efficacy (human PXR [2]): 1.26; zfPXR Efficacy (zebrafish PXR; relative to 20 μM 5α-androstan-3α-ol, assigned an efficacy of 1.0): 2.05 |
| C[C@@H]1C[C@H]2[C@@H]3CCC4=CC(=O)C=C[C@]4(C)[C@@]3(F)[C@@H](O)C[C@]2(C)[C@@]1(O)C(=O)CO [PR29, 1,4-Pregnadien-9α-fluoro-16α-methyl-11β,17,21-triol-3,20-dione] | None | – | – | – | EC50 (human PXR [2]; hPXR Activity): 40.7 µM; zfPXR Activity (zebrafish PXR): None |
